For assay [1], the target named is Acetylcholinesterase (Electrophorus electricus, UniProt O42275).
Description: Inhibition of electric eel AchE by Ellman's assay
For assay [2], the target named is Butyrylcholinesterase (Equus caballus, UniProt Q9N1N9).
Description: Inhibition of equine BChE by Ellman's assay

pIC50: −log10 of the molar value.

Chain of Butyrylcholinesterase (Q9N1N9 whole entry): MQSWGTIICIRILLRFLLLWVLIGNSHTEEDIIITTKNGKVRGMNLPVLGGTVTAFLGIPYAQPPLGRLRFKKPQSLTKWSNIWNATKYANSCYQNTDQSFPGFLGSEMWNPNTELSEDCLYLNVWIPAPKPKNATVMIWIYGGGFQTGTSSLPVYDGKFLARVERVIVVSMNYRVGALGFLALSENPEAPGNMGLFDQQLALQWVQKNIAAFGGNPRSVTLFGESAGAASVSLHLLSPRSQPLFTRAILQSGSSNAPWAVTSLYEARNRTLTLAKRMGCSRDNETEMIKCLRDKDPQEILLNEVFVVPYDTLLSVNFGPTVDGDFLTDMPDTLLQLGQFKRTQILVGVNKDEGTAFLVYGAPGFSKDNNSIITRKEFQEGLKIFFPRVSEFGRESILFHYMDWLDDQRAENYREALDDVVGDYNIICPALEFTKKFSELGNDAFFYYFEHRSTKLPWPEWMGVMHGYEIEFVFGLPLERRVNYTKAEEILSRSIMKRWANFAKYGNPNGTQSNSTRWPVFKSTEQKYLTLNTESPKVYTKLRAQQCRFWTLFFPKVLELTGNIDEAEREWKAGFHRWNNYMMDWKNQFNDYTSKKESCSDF
Chain of Acetylcholinesterase (O42275 whole entry): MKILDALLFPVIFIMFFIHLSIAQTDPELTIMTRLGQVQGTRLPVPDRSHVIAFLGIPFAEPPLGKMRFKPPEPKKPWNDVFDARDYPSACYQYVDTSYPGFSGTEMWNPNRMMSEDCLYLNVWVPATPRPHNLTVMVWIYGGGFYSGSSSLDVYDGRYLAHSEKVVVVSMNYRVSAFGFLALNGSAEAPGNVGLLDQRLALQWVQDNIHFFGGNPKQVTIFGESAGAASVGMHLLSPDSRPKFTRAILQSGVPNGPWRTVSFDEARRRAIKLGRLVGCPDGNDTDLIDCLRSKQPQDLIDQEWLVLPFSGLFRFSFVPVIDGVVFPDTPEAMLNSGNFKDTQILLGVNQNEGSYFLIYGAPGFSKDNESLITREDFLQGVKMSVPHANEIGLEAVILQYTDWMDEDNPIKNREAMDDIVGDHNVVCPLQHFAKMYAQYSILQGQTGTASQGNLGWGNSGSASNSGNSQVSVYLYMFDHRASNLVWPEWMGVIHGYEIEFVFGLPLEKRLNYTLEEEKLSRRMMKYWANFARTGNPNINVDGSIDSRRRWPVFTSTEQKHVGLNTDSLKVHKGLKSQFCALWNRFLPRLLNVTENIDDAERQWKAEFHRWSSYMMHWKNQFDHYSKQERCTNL

For orientation: pIC50 means the IC50 on a negative log10 scale, so that one unit is a factor of ten. Read a low pIC50 as a high IC50. For the molecule `COc1cc(/C=C/C(=O)NCCCCNc2c3c(nc4ccccc24)CCCC3)ccc1O`, the pIC50 in assay [1] was 8.12; in assay [2], 8.23.
As for `COc1cc(/C=C/C(=O)NCCCNc2c3c(nc4ccccc24)CCCC3)ccc1O`, the values for the negative-log IC50 (pIC50) in assay [1] and in assay [2] were 7.48 and 7.57, respectively.
In the case of `COc1cc(/C=C/C(=O)NCCCCCCCCNc2c3c(nc4ccccc24)CCCC3)ccc1O`, the pIC50 is 8.02 in assay [1] and 7.90 in assay [2].
`COc1cc(/C=C/C(=O)NCCCCCNc2c3c(nc4ccccc24)CCCC3)ccc1O`: the pIC50 in assay [1] was 8.36; in assay [2] it was 8.17.
On the same counts, the results for `NCCCNc1c2c(nc3ccccc13)CCCC2` are 7.16 and 8.26.
For `NCCCCNc1c2c(nc3ccccc13)CCCC2`, in that order: 7.63 and 8.15.
`NCCCCCNc1c2c(nc3ccccc13)CCCC2`: the figures for the pIC50 in assay [1] and in assay [2] were 8.49 and 8.30, respectively.
With `NCCCCCCCCNc1c2c(nc3ccccc13)CCCC2`, the pIC50 was 8.46 in assay [1] and 8.85 in assay [2].
For `COc1cc(/C=C/C(=O)NCCNc2c3c(nc4ccccc24)CCCC3)ccc1O`, in that order: 7.41 and 7.47.
For `NCCNc1c2c(nc3ccccc13)CCCC2`, in that order: 7.26 and 7.91.
